The target of assay [1] is T1, Heat shock protein HSP 90-alpha (Homo sapiens, UniProt P07900). Put plainly: Luminescence-based dose response biochemical high throughput screening assay for inhibitors of the Heat Shock Protein 90 (HSP90). [Related pubchem assays: 1831 (Summary AID.), 1846 (Confirmation screen.), 1789 (Primary screen.)].
For assay [2], the target named is Peroxisome proliferator-activated receptor gamma/Nuclear receptor coactivator 1 (Homo sapiens, UniProt P37231). Put plainly: TR-FRET dose response biochemical High Throughput Screening assay for agonists of the steroid receptor coactivator 1 (SRC-1) recruitment by the peroxisome proliferator-activated receptor gamma (PPAR gamma): non-selective agonists. [Related pubchem assays (depositor defined):AID1300, AID1808, AID504735, AID631]. Type of assay: protein assay. For orientation: Time-resolved FRET reads energy transfer from a long-lived donor to a nearby acceptor.

For assay [3], the target named is Neuropeptide Y receptor type 1 (Homo sapiens, UniProt P25929). It is filed as functional.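 Note: HEK293 cells with a CNG channel challenged with NPY then isoproterenol; potency as antagonist that reverses NPY suppression of cAMP signal.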
Assay [4] relates to Streptococcus sp. 'group A'. Put plainly: growth inhibition of control SK(-) GAS strain, dose response, counter-screen for streptokinase expression inhibitor project, luminescence, kanamycin, BacTiterGlo, confirmation (AID 1900). It is filed as functional, organism-based. On the technique in general: A counterscreen serves to expose hits that act by an unwanted route or on another target.

The target in assay [5] is Peroxisome proliferator-activated receptor gamma/Nuclear receptor coactivator 3 (Homo sapiens, UniProt P37231). Put plainly: TR-FRET dose response biochemical High Throughput Screening assay for agonists of the steroid receptor coactivator 3 (SRC-3) recruitment by the peroxisome proliferator-activated receptor gamma (PPAR gamma): non-selective agonists. [Related pubchem assays: 1301 (Confirmation screen.), 1048 (Primary screen.)]. It is filed as functional.

Assay [6] addresses Mothers against decapentaplegic homolog 3 (Homo sapiens, UniProt P84022). Put plainly: SMAD3 transcription factor inhibitors, dose response (AID 715). Type of assay: functional.
Assay [7] deals with Protein-tyrosine kinase 2-beta (Homo sapiens, UniProt Q14289).
The target in assay [8] is Peroxisome proliferator-activated receptor gamma/Nuclear receptor coactivator 2 (Homo sapiens, UniProt P37231). Put plainly: TR-FRET dose response biochemical High Throughput Screening assay for agonists of the steroid receptor coactivator 2 (SRC-2) recruitment by the peroxisome proliferator-activated receptor gamma (PPAR gamma): non-selective agonists. [Related pubchem assays: 1297, 1032 ]. Type of assay: functional.

Assay [9] deals with Streptococcus. Put plainly: Group A Streptococcus viability loss, dose response, counter-screen for streptokinase expression inhibitor project, luminescence, BacTiterGlo (AID 1915).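 Note: potency for reduction of bacterial viability or growth.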 It is filed as functional, organism-based.
Assay [10] in a line: Vero E6 cell cytotoxicity, dose response, cytotoxicity control for non-replicating M. tuberculosis project, secondary assay (AID 492998). Type of assay: functional, VeroE6. As to conditions: Vero C1008.
Assay [11] in a line: miR-122 activators in hepatoma reporter cells, dose response, cell-based, Huh7 psiCHECK-miR122, Renilla luciferase, cherry-picked (AID 651956).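 Note: huh7 hepatoma cells stably carrying a psiCHECK-2 miR-122 sensor plasmid; renilla luciferase signal reporting endogenous miR-122 activity after 48 h compound exposure.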 It is filed as functional.
A short description of assay [12]: Artemis endonuclease inhibitor potency, dose response, biochemical, fluorescence intensity (AID 720701).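 Note: Artemis endonuclease enzyme.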 It is filed as functional.
A short description of assay [13]: HEK293T cytotoxicity, dose response, cytotoxicity control for miR-122 modulator project, cell-based, inhibitor set, cherry-pick, set 2 (AID 720697). It is filed as functional.
In assay [14] the target is ORF 73 (Human herpesvirus 8, UniProt O40947). Put plainly: inhibitors of C-LANA binding to LBS DNA, dose response, biochemical, fluorescence polarization, cherry-picked samples (AID 504725).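 Note: fluorescence polarization of a labeled DNA duplex reporting LANA DNA binding; potency is for inhibitors that block LANA binding to the DNA.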 The arrangement: species or system Human gammaherpesvirus 8. In general terms: Fluorescence polarisation rises when a labelled molecule tumbles more slowly, as on binding a larger partner.

A short description of assay [15]: THP-1 cell cytotoxicity, dose response, cytotoxicity control for Vif-APOBEC3G degradation inhibitor project, THP-1 cells (AID 1117359). The note with it: Human immunodeficiency virus 1, THP-1. It is filed as functional.
Assay [16] concerns the target T2, Heat shock factor protein 1 (Mus musculus, UniProt P38532).
T2 sequence (P38532 whole entry): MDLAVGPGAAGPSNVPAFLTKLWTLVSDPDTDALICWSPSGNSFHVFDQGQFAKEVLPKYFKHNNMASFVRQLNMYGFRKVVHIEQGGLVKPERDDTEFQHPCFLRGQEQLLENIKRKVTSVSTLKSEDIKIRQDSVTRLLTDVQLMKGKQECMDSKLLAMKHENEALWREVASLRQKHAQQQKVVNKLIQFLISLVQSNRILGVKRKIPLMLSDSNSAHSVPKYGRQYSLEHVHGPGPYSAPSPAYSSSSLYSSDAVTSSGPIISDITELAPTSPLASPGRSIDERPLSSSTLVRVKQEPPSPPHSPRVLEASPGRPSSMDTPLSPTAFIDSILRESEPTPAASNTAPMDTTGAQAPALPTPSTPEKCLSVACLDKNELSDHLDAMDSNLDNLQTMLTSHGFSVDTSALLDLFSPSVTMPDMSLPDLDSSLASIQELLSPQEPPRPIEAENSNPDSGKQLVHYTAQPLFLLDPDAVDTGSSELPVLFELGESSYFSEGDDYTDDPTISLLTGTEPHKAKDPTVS
Put plainly: inhibition of MG132-induced HSE-luciferase signal, confirmation, cell-based, NIH3T3, luminescence, dose retest (AID 2382).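 Note: NIH3T3 fibroblasts with HSF1-driven luciferase reporter stressed by proteasome inhibitor MG132; luminescence from HSF1-driven luciferase expression after 8 hours of MG132 stress.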 Type of assay: functional.

Assay [17] deals with G-protein coupled receptor 55 (Homo sapiens, UniProt Q9Y2T6). Put plainly: GPR55 agonists via beta-arrestin recruitment, primary screen, imaging, U2OS cells, beta-arrestin-GFP redistribution (AID 1961). Type of assay: functional.
Assay [18] can be described thus: Fluorescence-based cell-based high throughput dose response assay for inhibitors of the interaction of nucleotide-binding oligomerization domain containing 2 (NOD2) and the receptor-interacting serine-threonine kinase 2 (RIPK2). Type of assay: functional. The note with it: Homo sapiens.
A short description of assay [19]: insulin promoter down-regulators in MIN6 cells, imaging, high-content screening, mouse beta cells (AID 1628). It is filed as functional.
The nature of assay [20]: cells. It is filed as functional, cell-based.
Assay [21] in a line: cytotoxicity in MIN6 insulinoma cells, dose response, cytotoxicity control, cell-based, mouse insulinoma (AID 2122).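 Note: confirmatory high-throughput counterscreen run to flag cytotoxic compounds; mouse MIN-6 beta cells carrying an insulin promoter eGFP reporter.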 Type of assay: functional.
In assay [22] the test system is HEK293. Put plainly: cytotoxicity in HEK293T NF-kB-Luc cells, SAR follow-up, cytotoxicity control for NF-kB activator project, cell-based, resazurin fluorescence (AID 493251). It is filed as functional.
The subject of assay [23] is Jurkat. Put plainly: SAR Analysis of small molecule inhibitors of T-cell specific antigen receptor-induced NF-kB activation in a Jurkat cell line using a luminescence assay - Set 2. [Related pubchem assays (depositor defined):AID435003, AID435012, AID465]. It is filed as functional, cell-based. As to conditions: Homo sapiens.
Assay [24] concerns Jurkat. Put plainly: SAR Analysis of small molecule inhibitors of T-cell specific antigen receptor-induced NF-kB activation in a Jurkat cell line using a luminescence assay. [Related pubchem assays (depositor defined):AID435003, AID435012, AID465]. It is filed as functional, cell-based. The note with it: Homo sapiens.
Assay [25] has as its target Caspase-9 (Homo sapiens, UniProt P55211). Put plainly: caspase-9 enzyme inhibition, dose response, selectivity assay for caspase-6 inhibitor project, biochemical, fluorescence, plate reader, cherry-picked samples (AID 743293).
Assay [26] concerns the target T1, Heat shock protein HSP 90-alpha. Type of assay: functional, organism-based.
For assay [27], the target named is Beta-galactosidase (Escherichia coli, UniProt Q8VNN2). Put plainly: beta-galactosidase enzyme inhibitors and activators, dose response, artefact control for CCR6 antagonist project, biochemical, E. coli enzyme, set 3 (AID 504712). It is filed as functional.
Assay [28] addresses Nonstructural protein 1 (Influenza A virus, UniProt Q194T2). It is filed as functional, Influenza A virus (A/California/07/2009(H1N1)).

Active and inactive are the calls of the source.

Peroxisome proliferator-activated receptor gamma/Nuclear receptor coactivator 1, sequence (P37231 whole entry): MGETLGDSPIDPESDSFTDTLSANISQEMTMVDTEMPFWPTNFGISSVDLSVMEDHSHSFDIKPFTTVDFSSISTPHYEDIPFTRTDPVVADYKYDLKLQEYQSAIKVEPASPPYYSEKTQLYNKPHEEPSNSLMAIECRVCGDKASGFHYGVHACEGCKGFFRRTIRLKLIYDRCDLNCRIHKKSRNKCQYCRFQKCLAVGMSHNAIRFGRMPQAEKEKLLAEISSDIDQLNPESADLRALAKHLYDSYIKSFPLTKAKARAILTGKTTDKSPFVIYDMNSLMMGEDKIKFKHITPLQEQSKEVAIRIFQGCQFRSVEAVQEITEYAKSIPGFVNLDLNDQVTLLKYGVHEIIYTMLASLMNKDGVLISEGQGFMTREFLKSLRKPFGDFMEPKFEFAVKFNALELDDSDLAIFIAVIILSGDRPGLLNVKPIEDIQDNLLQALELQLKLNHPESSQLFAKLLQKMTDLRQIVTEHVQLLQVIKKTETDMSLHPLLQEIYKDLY
Peroxisome proliferator-activated receptor gamma/Nuclear receptor coactivator 1, sequence (Q15788 whole entry, further chain): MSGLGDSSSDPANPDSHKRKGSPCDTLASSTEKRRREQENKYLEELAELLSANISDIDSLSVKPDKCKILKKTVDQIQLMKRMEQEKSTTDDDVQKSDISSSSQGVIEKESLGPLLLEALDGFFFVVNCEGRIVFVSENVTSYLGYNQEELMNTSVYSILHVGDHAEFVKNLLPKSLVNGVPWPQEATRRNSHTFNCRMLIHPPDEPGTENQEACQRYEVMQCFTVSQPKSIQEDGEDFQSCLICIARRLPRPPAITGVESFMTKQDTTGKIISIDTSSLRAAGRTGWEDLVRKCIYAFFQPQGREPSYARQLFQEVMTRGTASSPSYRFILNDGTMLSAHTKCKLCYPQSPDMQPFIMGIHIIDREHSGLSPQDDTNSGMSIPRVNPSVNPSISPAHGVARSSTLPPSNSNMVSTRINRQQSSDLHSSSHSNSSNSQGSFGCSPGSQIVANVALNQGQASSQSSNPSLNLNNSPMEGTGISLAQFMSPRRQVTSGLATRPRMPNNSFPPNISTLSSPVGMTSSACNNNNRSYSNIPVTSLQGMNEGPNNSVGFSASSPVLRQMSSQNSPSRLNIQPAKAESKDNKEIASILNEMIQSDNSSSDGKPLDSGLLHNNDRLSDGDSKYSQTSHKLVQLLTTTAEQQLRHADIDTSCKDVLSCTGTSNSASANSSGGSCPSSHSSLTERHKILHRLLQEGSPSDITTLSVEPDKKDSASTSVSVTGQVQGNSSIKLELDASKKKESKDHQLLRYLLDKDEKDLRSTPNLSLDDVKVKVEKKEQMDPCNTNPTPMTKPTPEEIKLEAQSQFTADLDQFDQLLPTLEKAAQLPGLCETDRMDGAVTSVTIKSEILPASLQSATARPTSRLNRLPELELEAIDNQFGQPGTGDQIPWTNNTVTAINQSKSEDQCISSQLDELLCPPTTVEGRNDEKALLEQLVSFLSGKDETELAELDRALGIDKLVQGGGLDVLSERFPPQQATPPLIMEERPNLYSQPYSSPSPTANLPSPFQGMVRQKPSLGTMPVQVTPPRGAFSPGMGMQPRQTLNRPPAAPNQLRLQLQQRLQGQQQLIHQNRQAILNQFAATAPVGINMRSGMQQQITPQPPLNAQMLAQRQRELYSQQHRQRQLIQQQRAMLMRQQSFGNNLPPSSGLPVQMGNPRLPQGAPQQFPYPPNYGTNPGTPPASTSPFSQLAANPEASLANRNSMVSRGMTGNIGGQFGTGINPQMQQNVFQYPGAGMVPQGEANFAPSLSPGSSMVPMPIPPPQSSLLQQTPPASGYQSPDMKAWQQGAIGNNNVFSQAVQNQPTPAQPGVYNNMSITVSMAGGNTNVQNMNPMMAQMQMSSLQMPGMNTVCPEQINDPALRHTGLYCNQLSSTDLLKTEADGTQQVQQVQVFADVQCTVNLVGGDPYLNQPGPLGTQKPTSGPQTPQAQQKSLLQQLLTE
Peroxisome proliferator-activated receptor gamma/Nuclear receptor coactivator 2, sequence (P37231 whole entry): as the sequence (P37231 whole entry) above
Peroxisome proliferator-activated receptor gamma/Nuclear receptor coactivator 2, sequence (Q15596 whole entry, further chain): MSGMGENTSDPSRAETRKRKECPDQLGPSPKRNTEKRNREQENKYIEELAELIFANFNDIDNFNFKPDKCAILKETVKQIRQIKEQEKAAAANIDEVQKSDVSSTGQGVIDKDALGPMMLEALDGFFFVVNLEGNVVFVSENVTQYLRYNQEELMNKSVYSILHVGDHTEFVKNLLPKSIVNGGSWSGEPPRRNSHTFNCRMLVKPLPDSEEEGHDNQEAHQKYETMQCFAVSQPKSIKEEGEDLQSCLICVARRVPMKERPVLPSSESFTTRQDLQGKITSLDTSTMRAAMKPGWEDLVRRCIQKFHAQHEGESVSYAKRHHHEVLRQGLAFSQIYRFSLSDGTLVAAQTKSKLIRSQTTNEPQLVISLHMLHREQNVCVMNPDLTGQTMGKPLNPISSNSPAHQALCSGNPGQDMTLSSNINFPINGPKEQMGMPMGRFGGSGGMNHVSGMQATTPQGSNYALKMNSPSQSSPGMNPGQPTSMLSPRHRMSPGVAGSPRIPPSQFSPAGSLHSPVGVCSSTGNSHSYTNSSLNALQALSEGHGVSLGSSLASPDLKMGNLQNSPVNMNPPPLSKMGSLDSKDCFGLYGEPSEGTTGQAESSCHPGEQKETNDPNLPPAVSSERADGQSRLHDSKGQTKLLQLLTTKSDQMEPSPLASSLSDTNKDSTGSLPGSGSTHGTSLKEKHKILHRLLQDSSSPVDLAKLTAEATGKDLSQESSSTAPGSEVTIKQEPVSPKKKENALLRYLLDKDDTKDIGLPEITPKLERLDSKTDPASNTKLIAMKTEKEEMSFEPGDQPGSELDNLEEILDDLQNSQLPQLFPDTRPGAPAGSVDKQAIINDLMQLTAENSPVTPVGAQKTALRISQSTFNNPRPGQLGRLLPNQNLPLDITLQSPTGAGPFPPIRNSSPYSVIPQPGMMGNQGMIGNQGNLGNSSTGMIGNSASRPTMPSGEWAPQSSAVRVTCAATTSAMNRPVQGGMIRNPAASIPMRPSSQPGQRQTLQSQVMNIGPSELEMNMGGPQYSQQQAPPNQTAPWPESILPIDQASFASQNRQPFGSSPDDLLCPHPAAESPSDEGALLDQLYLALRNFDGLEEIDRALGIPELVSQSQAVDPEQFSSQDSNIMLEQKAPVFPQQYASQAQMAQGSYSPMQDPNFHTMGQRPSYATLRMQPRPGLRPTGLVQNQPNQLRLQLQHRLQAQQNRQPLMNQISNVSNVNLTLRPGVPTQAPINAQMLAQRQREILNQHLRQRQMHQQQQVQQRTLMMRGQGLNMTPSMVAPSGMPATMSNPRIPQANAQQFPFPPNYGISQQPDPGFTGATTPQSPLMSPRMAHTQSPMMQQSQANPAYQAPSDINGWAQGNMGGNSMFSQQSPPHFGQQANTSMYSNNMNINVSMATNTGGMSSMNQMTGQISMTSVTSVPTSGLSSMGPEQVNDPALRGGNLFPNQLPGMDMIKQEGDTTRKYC
Caspase-9, sequence (P55211 1-315 limits assumed): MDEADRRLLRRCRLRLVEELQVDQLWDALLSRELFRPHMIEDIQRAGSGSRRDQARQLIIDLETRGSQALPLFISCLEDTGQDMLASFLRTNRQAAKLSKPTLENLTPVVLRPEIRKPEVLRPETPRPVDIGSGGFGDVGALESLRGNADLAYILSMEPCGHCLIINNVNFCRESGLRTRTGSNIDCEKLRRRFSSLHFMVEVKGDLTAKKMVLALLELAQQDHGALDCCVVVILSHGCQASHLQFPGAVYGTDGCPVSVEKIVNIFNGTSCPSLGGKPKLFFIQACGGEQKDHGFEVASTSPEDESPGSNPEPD
Caspase-9, sequence (P55211 331-416 limits assumed): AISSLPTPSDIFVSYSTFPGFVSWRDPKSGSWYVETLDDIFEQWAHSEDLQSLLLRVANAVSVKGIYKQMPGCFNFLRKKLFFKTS
Neuropeptide Y receptor type 1, sequence (P25929 whole entry): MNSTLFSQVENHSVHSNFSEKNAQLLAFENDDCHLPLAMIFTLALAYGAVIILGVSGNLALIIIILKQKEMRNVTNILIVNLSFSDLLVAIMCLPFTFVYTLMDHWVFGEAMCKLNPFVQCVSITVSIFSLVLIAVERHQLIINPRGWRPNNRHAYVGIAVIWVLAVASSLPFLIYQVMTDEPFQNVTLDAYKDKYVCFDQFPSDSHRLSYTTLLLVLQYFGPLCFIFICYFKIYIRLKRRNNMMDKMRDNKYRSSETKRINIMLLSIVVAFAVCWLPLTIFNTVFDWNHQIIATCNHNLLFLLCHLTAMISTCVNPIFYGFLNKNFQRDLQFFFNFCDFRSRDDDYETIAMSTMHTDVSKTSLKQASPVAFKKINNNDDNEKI
G-protein coupled receptor 55, sequence (Q9Y2T6 whole entry, the tested form may be a part): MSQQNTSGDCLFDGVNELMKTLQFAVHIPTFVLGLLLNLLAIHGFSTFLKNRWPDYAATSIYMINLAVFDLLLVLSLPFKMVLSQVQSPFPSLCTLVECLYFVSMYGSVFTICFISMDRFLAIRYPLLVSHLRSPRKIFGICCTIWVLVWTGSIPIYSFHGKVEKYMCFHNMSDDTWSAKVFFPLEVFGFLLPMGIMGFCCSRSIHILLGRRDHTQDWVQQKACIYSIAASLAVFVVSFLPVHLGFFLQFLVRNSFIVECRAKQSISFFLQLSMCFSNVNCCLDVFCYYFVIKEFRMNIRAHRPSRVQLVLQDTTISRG

A word on the IC50: it is the point on the concentration scale where inhibition reaches its midpoint. For the molecule `O=C(O)c1ccc(NC2=C/C(=N/S(=O)(=O)c3ccccc3)c3ccccc3C2=O)cc1`, in assay [1], the IC50 is 967 nM (active).

What is called EC50 is the midpoint of the concentration-response curve. By CC50 is commonly meant the concentration at which the toxic effect on the cells reaches its halfway point. In general, AC50 refers to the concentration giving half of the maximal activity seen. With `Nc1ccc2c(c1)C(=O)C(=O)c1ccccc1-2`, the EC50 is 12.3 µM (inactive) in assay [2]; 460 nM (active) in [4]; > 79.4 µM (not active) in assay [5]; 12.1 µM (not active) in [8]; 4.95 µM (active) in assay [9]. Moreover, the IC50 in assay [3] is 4.54 µM (active); in assay [6] it was 9.89 µM (active); in assay [7] it was > 69.5 µM (not active); in assay [12], < 630 nM (active). For the same molecule, the CC50 in assay [10] was 1.81 µM (active). Also, the AC50 in assay [11] was 10.7 µM (active); in assay [13] it was 2.19 µM (active).

As for `COc1cc(-c2ccc(Nc3ccccc3C(=O)O)c(OC)c2)ccc1Nc1ccccc1C(=O)O`, the AC50 in [14] was 78.9 µM (active). Moreover, in assay [15], the CC50 is > 40 µM (active).

For `COC(=O)[C@@H]1[C@@H](C(=O)OC)C2(c3ccccc3-c3ccccc32)N(c2ccc(Cl)cc2)N1C#N`, the values for the concentration for a half-maximal effect (EC50) in assay [16] and in [17] were 8.22 µM (inconclusive) and > 32 µM (inactive), respectively. The concentration for half-maximal inhibition (IC50) in assay [18] was 1.77 µM (active).

For the molecule `CCCC(=O)NC(c1ccccc1OC)c1ccc2cccnc2c1O` (centres undefined), the IC50 in assay [19] was 1.71 µM (active); in assay [21] it was 1.91 µM (active); in [22] (Homo sapiens, HEK293), 29.6 µM (inactive); in assay [22] (hek293) it was 41.2 µM (inactive); in [23], 5.16 µM (active); in assay [24] it was 3.82 µM (active). In [20], the EC50 was 7.86 µM (active).

Regarding `COc1ccc(OC)c(Nc2cc3ccccc3c(O)n2)c1`, the AC50 in [25] was 10.1 µM (active).

In the case of `Cc1ccc2nc(/C(C#N)=C\c3ccc([N+](=O)[O-])o3)[nH]c2c1`, in [26], the AC50 was < 195 nM (active).

As for `COC(CNC(=O)c1ccc2c3c(onc13)-c1ccccc1C2=O)OC`, the IC50 in assay [27] is > 66.6 µM (inactive); in assay [28], 82.4 µM (active).
